Measured values taken from the CheMixHub viscosity set.

Assay: xn = mol fraction of the nth substance listed

COCCOCCOC + CCCOC(C)=O
viscosity [mPa·s], 101.3 kPa
Settings | 298.15 K | 308.15 K | 318.15 K
x1 = 0.0296 | 0.567 | 0.499 | 0.447
x1 = 0.076 | 0.586 | 0.515 | 0.46
x1 = 0.0957 | 0.594 | 0.521 | 0.467
x1 = 0.1388 | 0.611 | 0.534 | 0.478
x1 = 0.1878 | 0.633 | 0.551 | 0.492
x1 = 0.2478 | 0.656 | 0.572 | 0.508
x1 = 0.3236 | 0.688 | 0.597 | 0.528
x1 = 0.3893 | 0.716 | 0.619 | 0.544
x1 = 0.4382 | 0.736 | 0.635 | 0.557
x1 = 0.5153 | 0.769 | 0.662 | 0.579
x1 = 0.5945 | 0.805 | 0.691 | 0.603
x1 = 0.6605 | 0.835 | 0.715 | 0.626
x1 = 0.735 | 0.87 | 0.744 | 0.648
x1 = 0.7756 | 0.888 | 0.759 | 0.659
x1 = 0.8324 | 0.916 | 0.779 | 0.676
x1 = 0.8696 | 0.933 | 0.793 | 0.687
x1 = 0.9082 | 0.954 | 0.808 | 0.699
x1 = 0.9425 | 0.97 | 0.822 | 0.71
x1 = 0.9777 | 0.988 | 0.835 | 0.722
x2 = 0.0101 | – | – | 0.725
x2 = 0.0103 | 0.991 | 0.84 | –

CCCCCCN + CCN(CC)CC
viscosity [mPa·s], 101.33 kPa
Settings | x2 = 0.1014 | x2 = 0.1952 | x2 = 0.3807 | x2 = 0.4897 | x2 = 0.5912 | x2 = 0.7898 | x2 = 0.8946
303.15 K | 0.6552 | 0.6088 | 0.5322 | 0.4934 | 0.4613 | 0.407 | 0.3827
313.15 K | 0.5654 | 0.5278 | 0.4639 | 0.4323 | 0.4027 | 0.3627 | 0.3436

CCCO + CCO
101 kPa
Settings | viscosity [mPa·s]
293.15 K, x2 = 0.5 | 1.564
293.15 K, x2 = 0.75 | 1.34
298.15 K, x2 = 0.158 | 1.759
298.15 K, x2 = 0.25 | 1.64
298.15 K, x2 = 0.303 | 1.64
298.15 K, x2 = 0.439 | 1.522
298.15 K, x2 = 0.5 | 1.407
298.15 K, x2 = 0.566 | 1.408
298.15 K, x2 = 0.684 | 1.319
298.15 K, x2 = 0.796 | 1.233
298.15 K, x2 = 0.902 | 1.169
303.15 K, x2 = 0.25 | 1.47
303.15 K, x2 = 0.5 | 1.26
308.15 K, x2 = 0.25 | 1.314
308.15 K, x2 = 0.5 | 1.139
308.15 K, x2 = 0.75 | 0.99
313.15 K, x2 = 0.25 | 1.183
313.15 K, x2 = 0.5 | 1.032
313.15 K, x2 = 0.75 | 0.903
318.15 K, x2 = 0.5 | 0.938
318.15 K, x2 = 0.75 | 0.824
323.15 K, x2 = 0.25 | 0.969
323.15 K, x2 = 0.5 | 0.854
323.15 K, x2 = 0.75 | 0.755

CO + CCO
Settings | viscosity [mPa·s]
293.15 K, 101 kPa, x1 = 0.25 | 1.134
293.15 K, 101 kPa, x1 = 0.5 | 0.809
293.15 K, 101 kPa, x1 = 0.75 | 0.69
293.15 K, 101.3 kPa, x1 = 0.114 | 1.1
293.15 K, 101.3 kPa, x1 = 0.263 | 0.997
293.15 K, 101.3 kPa, x1 = 0.501 | 0.849
293.15 K, 101.3 kPa, x1 = 0.738 | 0.712
293.15 K, 101.3 kPa, x1 = 0.856 | 0.651
298.15 K, 101 kPa, x1 = 0.2045 | 0.94
298.15 K, 101 kPa, x1 = 0.25 | 1.032
298.15 K, 101 kPa, x1 = 0.3971 | 0.832
298.15 K, 101 kPa, x1 = 0.5 | 0.747
298.15 K, 101 kPa, x1 = 0.5962 | 0.729
298.15 K, 101 kPa, x1 = 0.75 | 0.639
298.15 K, 101 kPa, x1 = 0.7975 | 0.634
298.15 K, 101.33 kPa, x1 = 0.0889 | 1.045
298.15 K, 101.33 kPa, x1 = 0.146 | 1.008
298.15 K, 101.33 kPa, x1 = 0.2385 | 0.95
298.15 K, 101.33 kPa, x1 = 0.3311 | 0.896
298.15 K, 101.33 kPa, x1 = 0.4041 | 0.855
298.15 K, 101.33 kPa, x1 = 0.5234 | 0.791
298.15 K, 101.33 kPa, x1 = 0.6076 | 0.747
298.15 K, 101.33 kPa, x1 = 0.7136 | 0.694
298.15 K, 101.33 kPa, x1 = 0.8128 | 0.643
298.15 K, 101.33 kPa, x1 = 0.9156 | 0.594
303.15 K, 101 kPa, x1 = 0.25 | 0.939
303.15 K, 101 kPa, x1 = 0.5 | 0.69
303.15 K, 101 kPa, x1 = 0.75 | 0.594
308.15 K, 101 kPa, x1 = 0.2045 | 0.791
308.15 K, 101 kPa, x1 = 0.25 | 0.858
308.15 K, 101 kPa, x1 = 0.3971 | 0.706
308.15 K, 101 kPa, x1 = 0.5 | 0.638
308.15 K, 101 kPa, x1 = 0.5962 | 0.625
308.15 K, 101 kPa, x1 = 0.75 | 0.552
308.15 K, 101 kPa, x1 = 0.7975 | 0.548
313.15 K, 101 kPa, x1 = 0.25 | 0.784
313.15 K, 101 kPa, x1 = 0.5 | 0.593
313.15 K, 101 kPa, x1 = 0.75 | 0.515
313.15 K, 101.3 kPa, x1 = 0.114 | 0.77
313.15 K, 101.3 kPa, x1 = 0.263 | 0.709
313.15 K, 101.3 kPa, x1 = 0.501 | 0.615
313.15 K, 101.3 kPa, x1 = 0.738 | 0.531
313.15 K, 101.3 kPa, x1 = 0.856 | 0.491
318.15 K, 101 kPa, x1 = 0.2045 | 0.667
318.15 K, 101 kPa, x1 = 0.25 | 0.718
318.15 K, 101 kPa, x1 = 0.3971 | 0.599
318.15 K, 101 kPa, x1 = 0.5 | 0.551
318.15 K, 101 kPa, x1 = 0.5962 | 0.531
318.15 K, 101 kPa, x1 = 0.75 | 0.482
318.15 K, 101 kPa, x1 = 0.7975 | 0.474
323.15 K, 101 kPa, x1 = 0.25 | 0.661
323.15 K, 101 kPa, x1 = 0.5 | 0.513
323.15 K, 101 kPa, x1 = 0.75 | 0.452
